Consider five compounds from ChEMBL document CHEMBL5055670, “Sublyratins A-O, Labdane-Type Diterpenoids from Croton sublyratus” (J Nat Prod, 2021).

In general, pIC50 refers to the negative decadic logarithm of the IC50, by convention in mol/L.

SMILES strings stand for the structures. pIC50: −log10 of the molar value. Counter-ions that a name gives are not always drawn. Bounds are passed on as bounds.

In test [1] the test system is A549. The test can be described thus: Cytotoxicity against human A549 cells assessed as cell growth inhibition by SRB assay. The format is functional, cell-based. (In general: The SRB assay estimates cell density from bound dye.)
The subject of test [2] is HL-60. In words: Cytotoxicity against human HL-60 cells assessed as cell growth inhibition incubated for 72 hrs by CCK8 assay. The format is functional, cell-based. To be noted: HL-60, 72 h. Background: Tetrazolium dyes change colour on reduction, which living cells bring about.

As to `C=C[C@@](C)(O)[C@@H]1C[C@H]2C(=CC[C@H]3C(C)(C)CCC[C@]23C)C(=O)O1`, the pIC50 in test [1] is below 5.00; in test [2], 5.82.

On to `C=C[C@@](C)(O)[C@H]1C[C@H]2C(=CC[C@H]3C(C)(C)CCC[C@]23C)C(=O)O1`, for which the figures for the pIC50 in test [1] and in test [2] were below 5.00 and 5.55, respectively.

With `C=C[C@](C)(O)[C@@H]1C[C@H]2C(=CC[C@H]3C(C)(C)CCC[C@]23C)C(=O)O1`, the figures for the pIC50 in test [1] and in test [2] were below 5.00 and 5.62, respectively.

As for `C=C[C@](C)(O)[C@H]1C[C@H]2C(=CC[C@H]3C(C)(C)CCC[C@]23C)C(=O)O1`, the pIC50 was below 5.00 in test [1] and 5.59 in test [2].

For `COc1cccc2c1C(=O)c1c(O)c3c(c(O)c1C2=O)C[C@@](O)(C(=O)CO)C[C@@H]3O[C@H]1C[C@H](N)[C@H](O)[C@H](C)O1` [DOXORUBICIN HYDROCHLORIDE], the pIC50 in test [1] is 6.07.
